Test [1] has as its target T1, Amine oxidase [flavin-containing] B (Homo sapiens, UniProt P27338).
T1 sequence (P27338 whole entry): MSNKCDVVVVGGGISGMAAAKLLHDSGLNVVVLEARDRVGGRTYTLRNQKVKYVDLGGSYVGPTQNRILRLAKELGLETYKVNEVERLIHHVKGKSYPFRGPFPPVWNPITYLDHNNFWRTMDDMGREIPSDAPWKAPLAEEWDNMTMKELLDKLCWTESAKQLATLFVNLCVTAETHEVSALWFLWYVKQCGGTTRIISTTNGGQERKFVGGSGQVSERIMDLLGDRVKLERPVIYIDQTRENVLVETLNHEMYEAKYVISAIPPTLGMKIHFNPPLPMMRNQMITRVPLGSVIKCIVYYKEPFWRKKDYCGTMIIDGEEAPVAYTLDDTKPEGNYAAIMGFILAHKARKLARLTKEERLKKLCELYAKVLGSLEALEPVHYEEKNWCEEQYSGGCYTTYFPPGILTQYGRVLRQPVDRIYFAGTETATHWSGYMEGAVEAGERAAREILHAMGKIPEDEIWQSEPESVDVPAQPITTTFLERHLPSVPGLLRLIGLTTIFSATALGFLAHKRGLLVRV

For test [2], the target named is T2, Amine oxidase [flavin-containing] A (Homo sapiens, UniProt P21397).
T2 sequence (P21397 whole entry): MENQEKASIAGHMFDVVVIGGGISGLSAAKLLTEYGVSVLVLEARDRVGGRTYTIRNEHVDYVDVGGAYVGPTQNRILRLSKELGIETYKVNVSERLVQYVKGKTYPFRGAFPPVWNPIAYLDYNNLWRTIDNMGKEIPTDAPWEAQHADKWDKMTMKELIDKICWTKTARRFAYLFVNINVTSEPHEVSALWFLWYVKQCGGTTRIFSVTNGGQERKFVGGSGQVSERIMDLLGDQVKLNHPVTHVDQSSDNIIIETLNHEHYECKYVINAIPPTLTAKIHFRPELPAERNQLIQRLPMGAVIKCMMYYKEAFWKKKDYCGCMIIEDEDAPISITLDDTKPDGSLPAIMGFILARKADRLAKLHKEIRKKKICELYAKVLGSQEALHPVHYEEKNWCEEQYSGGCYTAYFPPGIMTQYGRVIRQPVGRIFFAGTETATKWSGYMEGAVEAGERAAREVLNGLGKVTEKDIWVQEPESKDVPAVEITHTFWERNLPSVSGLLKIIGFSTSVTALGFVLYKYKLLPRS

The target of test [3] is T3, Lysine-specific demethylase 2A (Homo sapiens, UniProt Q9Y2K7).
T3 sequence (Q9Y2K7 whole entry): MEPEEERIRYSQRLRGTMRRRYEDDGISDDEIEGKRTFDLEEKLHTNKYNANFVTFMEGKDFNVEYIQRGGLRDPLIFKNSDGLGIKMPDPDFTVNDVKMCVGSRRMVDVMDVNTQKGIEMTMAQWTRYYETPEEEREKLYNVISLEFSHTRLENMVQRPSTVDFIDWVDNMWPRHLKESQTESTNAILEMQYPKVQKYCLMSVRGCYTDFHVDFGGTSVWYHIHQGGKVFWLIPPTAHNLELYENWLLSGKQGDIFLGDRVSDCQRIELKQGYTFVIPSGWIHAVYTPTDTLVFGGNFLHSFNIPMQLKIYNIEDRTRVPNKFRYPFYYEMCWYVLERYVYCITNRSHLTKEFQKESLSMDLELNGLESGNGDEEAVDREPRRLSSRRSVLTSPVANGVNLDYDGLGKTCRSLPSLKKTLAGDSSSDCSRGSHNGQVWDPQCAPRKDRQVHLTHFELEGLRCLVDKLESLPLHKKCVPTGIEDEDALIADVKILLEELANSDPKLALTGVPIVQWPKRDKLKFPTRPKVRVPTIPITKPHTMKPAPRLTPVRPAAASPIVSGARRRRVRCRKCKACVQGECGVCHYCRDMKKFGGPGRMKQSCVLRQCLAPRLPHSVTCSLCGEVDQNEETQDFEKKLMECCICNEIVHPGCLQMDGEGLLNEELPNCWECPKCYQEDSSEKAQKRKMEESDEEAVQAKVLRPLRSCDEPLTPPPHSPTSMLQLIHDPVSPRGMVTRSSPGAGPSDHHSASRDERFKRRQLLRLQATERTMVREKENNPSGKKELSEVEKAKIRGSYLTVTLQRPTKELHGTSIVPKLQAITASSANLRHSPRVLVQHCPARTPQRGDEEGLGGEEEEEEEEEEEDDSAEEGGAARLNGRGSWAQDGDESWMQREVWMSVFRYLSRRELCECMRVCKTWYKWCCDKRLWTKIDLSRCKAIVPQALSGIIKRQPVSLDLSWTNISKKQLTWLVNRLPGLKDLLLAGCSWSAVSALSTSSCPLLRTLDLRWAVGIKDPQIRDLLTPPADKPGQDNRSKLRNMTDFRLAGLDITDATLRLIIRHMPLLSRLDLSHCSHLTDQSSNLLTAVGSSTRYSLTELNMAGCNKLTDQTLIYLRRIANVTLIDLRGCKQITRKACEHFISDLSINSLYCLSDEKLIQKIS

Test [4] deals with T4, Egl nine homolog 1 (Homo sapiens, UniProt Q9GZT9).
Target sequence in this assay (Q9GZT9 2-426 limits assumed): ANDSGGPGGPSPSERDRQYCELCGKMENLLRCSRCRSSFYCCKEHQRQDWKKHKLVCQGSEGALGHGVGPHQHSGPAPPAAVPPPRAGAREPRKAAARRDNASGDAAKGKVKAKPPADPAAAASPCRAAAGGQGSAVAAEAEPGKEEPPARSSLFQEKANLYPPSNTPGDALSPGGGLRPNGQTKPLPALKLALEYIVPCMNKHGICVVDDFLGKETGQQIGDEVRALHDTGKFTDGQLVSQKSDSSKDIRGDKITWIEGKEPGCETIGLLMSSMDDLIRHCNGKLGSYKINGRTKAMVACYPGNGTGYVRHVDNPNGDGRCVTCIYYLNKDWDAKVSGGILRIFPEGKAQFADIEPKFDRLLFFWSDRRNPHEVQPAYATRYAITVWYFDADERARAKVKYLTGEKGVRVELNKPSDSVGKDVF
The target in test [5] is T4, Egl nine homolog 1. The source holds these as a separate data set.
Target sequence in this assay (Q9GZT9 whole entry): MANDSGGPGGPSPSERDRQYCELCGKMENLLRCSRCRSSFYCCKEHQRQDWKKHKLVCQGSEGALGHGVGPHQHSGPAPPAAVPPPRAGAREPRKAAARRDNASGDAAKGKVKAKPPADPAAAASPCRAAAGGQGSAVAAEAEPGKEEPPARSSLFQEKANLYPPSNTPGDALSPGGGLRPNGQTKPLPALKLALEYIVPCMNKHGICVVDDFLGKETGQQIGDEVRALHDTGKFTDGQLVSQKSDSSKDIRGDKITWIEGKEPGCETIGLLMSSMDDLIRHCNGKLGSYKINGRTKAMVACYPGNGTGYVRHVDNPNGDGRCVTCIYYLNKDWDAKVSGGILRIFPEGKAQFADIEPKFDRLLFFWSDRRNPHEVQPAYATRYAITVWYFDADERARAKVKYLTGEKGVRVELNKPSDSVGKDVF
For test [6], the target named is Hypoxia-inducible factor 1-alpha inhibitor (Homo sapiens, UniProt Q9NWT6).
Hypoxia-inducible factor 1-alpha inhibitor, sequence (Q9NWT6 whole entry): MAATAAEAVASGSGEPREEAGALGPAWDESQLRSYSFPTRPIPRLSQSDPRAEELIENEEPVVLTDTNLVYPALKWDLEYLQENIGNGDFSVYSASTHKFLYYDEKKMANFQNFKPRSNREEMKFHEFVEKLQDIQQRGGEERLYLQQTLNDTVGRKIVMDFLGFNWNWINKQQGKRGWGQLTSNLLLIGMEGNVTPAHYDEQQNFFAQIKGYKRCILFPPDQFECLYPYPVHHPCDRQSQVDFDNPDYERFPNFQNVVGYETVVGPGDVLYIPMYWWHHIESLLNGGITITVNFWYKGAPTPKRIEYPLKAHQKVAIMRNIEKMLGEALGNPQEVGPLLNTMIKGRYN
A further test concerns the target Prolyl hydroxylase EGLN2 (Homo sapiens, UniProt Q96KS0).
For test [7], the target named is Histone lysine demethylase PHF8 (Homo sapiens, UniProt Q9UPP1). Nature of the test: Inhibition of KDM7B.
Histone lysine demethylase PHF8, sequence (Q9UPP1 whole entry): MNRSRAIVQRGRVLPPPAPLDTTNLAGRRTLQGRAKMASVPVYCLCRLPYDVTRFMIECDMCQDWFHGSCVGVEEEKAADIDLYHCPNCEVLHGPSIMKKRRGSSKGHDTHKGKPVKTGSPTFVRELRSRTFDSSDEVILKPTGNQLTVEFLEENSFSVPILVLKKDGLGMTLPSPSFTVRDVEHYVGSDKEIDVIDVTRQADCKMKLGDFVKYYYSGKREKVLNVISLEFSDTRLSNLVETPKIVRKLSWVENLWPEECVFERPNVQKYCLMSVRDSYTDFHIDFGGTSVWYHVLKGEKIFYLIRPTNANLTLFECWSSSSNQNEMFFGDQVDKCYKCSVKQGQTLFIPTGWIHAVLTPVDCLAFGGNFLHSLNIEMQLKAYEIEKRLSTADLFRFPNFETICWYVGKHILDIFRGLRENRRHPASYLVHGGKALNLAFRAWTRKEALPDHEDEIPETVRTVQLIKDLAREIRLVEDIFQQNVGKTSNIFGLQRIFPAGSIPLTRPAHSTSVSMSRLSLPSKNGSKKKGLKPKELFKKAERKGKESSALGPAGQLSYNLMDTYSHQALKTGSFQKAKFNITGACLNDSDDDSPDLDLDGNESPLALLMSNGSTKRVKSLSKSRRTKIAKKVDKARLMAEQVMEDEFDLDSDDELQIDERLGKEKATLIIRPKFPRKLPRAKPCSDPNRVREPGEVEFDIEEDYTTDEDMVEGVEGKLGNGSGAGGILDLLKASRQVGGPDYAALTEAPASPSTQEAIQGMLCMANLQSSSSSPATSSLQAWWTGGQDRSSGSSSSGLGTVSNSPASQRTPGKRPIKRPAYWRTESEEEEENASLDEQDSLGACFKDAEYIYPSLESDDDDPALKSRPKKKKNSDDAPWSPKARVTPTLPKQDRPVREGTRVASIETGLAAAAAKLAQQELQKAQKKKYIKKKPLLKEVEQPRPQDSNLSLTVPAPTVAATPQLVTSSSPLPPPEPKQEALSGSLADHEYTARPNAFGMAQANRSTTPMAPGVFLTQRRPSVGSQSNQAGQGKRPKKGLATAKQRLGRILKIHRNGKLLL
The target of a further test is Prolyl hydroxylase EGLN3 (Homo sapiens, UniProt Q9H6Z9). Nature of the test: Inhibition of PHD3.
Prolyl hydroxylase EGLN3, sequence (Q9H6Z9 whole entry): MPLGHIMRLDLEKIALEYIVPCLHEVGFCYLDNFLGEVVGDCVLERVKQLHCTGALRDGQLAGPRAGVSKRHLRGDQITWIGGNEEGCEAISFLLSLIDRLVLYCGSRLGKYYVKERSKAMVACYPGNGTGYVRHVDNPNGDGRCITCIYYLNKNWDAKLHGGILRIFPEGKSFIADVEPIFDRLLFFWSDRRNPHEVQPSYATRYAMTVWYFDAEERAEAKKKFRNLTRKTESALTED
Test [8] addresses Lysine-specific demethylase 6B (Homo sapiens, UniProt O15054). The test can be described thus: Inhibition of KDM6B.
Test [9] concerns the target T5, Lysine-specific demethylase 4C (Homo sapiens, UniProt Q9H3R0).
T5 sequence (Q9H3R0 whole entry): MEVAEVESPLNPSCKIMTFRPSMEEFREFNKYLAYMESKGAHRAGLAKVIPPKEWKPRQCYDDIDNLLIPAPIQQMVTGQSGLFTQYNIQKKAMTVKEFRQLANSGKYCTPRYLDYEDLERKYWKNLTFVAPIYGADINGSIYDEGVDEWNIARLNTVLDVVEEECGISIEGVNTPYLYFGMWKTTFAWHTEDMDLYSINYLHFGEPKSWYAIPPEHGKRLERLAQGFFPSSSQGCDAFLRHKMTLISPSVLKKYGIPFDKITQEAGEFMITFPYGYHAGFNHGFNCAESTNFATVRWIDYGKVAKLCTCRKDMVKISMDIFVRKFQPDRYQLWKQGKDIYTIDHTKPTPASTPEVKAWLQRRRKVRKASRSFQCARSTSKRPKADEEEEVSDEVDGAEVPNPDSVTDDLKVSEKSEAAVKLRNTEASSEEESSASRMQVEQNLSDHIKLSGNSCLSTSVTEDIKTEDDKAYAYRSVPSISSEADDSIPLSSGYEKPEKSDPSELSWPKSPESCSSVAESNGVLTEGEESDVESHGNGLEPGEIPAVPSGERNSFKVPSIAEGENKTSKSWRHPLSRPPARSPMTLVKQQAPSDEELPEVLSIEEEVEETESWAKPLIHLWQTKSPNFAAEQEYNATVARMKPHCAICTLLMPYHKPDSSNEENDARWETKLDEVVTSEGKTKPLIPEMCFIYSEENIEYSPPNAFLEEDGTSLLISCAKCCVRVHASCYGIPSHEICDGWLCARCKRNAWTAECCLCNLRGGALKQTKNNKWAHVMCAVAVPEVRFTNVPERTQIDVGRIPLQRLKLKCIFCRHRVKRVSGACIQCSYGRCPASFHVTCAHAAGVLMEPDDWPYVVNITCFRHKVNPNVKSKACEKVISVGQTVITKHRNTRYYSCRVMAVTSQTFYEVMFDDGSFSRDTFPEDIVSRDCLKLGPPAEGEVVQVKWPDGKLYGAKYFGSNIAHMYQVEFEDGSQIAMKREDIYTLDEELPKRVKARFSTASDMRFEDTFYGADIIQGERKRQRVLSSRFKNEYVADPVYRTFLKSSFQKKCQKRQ

Test [10] addresses T6, Lysine-specific demethylase 4A (Homo sapiens, UniProt O75164).
T6 sequence (O75164 whole entry): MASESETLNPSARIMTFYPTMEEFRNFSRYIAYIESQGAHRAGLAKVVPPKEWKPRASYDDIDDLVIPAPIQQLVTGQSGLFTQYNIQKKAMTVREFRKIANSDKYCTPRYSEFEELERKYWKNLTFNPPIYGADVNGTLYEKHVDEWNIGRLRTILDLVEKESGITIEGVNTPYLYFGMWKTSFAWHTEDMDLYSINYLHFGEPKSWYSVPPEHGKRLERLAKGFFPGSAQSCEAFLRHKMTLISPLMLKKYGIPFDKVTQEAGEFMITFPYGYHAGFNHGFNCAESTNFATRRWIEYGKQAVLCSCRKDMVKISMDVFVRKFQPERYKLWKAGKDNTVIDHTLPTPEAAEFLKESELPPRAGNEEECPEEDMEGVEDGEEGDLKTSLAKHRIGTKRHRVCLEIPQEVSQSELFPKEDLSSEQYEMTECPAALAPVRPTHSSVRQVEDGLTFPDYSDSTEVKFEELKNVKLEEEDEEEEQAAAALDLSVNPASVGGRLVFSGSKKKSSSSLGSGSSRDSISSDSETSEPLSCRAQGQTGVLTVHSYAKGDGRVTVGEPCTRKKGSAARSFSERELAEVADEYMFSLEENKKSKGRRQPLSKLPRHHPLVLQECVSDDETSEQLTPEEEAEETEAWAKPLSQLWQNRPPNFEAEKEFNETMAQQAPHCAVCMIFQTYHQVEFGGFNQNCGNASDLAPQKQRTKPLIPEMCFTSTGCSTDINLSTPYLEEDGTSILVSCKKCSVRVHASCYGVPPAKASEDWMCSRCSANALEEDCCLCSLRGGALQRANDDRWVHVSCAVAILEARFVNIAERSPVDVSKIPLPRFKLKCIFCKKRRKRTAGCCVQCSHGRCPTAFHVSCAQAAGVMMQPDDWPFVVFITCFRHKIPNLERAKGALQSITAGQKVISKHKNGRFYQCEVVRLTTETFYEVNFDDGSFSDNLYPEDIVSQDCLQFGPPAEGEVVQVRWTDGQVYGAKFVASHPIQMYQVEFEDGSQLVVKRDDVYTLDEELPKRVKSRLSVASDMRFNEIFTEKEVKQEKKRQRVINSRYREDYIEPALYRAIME

Activity calls are given as the source filed them. No cut-off for these calls is given here.

Lysine-specific demethylase 6B, sequence (O15054 whole entry): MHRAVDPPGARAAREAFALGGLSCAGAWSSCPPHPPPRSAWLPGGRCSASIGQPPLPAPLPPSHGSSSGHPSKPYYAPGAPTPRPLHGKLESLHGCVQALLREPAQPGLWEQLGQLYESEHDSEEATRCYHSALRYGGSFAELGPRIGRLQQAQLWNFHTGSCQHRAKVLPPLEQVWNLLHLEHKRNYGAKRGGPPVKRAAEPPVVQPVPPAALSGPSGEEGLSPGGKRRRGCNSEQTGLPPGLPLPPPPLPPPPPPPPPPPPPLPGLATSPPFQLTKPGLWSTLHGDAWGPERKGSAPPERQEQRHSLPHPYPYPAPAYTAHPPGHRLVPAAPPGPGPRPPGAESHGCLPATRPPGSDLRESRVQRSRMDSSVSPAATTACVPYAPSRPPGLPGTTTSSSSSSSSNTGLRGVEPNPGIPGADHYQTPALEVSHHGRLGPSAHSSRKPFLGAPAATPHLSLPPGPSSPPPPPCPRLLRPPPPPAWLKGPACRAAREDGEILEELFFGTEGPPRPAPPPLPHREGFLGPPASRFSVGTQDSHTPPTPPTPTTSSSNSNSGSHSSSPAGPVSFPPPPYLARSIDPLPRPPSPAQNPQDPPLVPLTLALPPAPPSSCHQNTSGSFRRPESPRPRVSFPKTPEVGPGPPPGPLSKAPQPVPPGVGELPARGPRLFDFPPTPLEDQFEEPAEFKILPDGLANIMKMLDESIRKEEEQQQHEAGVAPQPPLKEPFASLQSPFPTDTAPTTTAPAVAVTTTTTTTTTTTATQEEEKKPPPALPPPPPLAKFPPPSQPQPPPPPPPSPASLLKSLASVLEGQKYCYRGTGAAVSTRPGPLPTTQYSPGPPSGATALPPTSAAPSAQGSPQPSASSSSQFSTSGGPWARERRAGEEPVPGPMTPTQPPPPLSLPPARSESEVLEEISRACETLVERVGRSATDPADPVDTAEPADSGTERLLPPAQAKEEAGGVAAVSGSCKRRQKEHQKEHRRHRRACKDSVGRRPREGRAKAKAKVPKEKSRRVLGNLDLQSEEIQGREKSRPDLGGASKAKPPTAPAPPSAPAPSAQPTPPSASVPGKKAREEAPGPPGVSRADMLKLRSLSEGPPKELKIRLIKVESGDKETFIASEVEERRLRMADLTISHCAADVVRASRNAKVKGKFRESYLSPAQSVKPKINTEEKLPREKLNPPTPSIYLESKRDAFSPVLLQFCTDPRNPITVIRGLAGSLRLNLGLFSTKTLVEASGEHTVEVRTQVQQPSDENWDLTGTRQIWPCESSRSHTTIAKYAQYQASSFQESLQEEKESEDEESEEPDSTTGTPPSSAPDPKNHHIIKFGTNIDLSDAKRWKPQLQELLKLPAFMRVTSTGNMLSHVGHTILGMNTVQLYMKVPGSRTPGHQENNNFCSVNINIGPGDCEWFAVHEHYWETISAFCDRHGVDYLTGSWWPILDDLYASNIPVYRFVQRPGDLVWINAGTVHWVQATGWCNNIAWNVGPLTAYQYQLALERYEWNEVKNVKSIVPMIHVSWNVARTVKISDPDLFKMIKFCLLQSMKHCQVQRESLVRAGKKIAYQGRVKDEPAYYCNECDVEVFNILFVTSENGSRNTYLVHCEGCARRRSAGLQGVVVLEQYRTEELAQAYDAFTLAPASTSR
Prolyl hydroxylase EGLN2, sequence (Q96KS0 whole entry): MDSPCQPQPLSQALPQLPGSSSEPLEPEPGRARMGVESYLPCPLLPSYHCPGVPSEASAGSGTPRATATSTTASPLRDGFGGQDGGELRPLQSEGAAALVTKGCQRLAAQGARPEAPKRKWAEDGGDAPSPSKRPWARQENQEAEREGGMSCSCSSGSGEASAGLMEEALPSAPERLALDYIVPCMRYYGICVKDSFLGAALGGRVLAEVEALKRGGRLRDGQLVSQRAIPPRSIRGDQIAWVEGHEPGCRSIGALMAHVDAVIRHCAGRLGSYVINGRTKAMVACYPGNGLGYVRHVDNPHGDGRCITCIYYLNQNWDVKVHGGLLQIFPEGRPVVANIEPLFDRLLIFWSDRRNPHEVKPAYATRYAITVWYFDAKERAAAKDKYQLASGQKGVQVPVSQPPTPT

For the compound `N[C@@H]1C[C@H]1c1ccc(OCC[C@H](NC(=O)c2ccccc2)C(=O)NCc2ccccc2)cc1`, the results for the Ki in test [1] and in [2] were 1700 µM and 250 µM, respectively.

In turn, `NC1CC1c1ccc(NC(=O)C(Cc2ccccc2)NC(=O)OCc2ccccc2)cc1` (configuration not stated) displayed a Ki in test [1] above 133 µM.

In turn, `O=C(O)CC[C@H](O)C(=O)O` had an IC50 in test [3] of 48 µM.

Turning to `NC1CC1c1cc(F)cc(F)c1OCc1ccccc1` (configuration not stated), the Ki in [1] was found to be 17 µM; in [2], 110 µM.

Regarding `O=C(O)C(=O)N[C@H](Cc1ccc(OS(=O)(=O)c2ccc(Br)cc2)cc1)C(=O)O`, the inhibition result at Egl nine homolog 1 [4] is “inactive”.

At Egl nine homolog 1 [5], `O=C(O)c1ccnc(C(=O)O)c1Nc1ccccc1F` showed an IC50 above 400 µM.

`O=C(O)CC[C@@H](O)C(=O)O` gave an IC50 in test [3] of 106 µM.

With `O=C(O)c1ccnc2c(O)cccc12`, the results for the half-maximal inhibitory concentration (IC50) (in [6]; on Egl nine homolog 1 [5]) were 21 µM and 14 µM, respectively.

Consider `O=C(O)/C=C/C(=O)N(O)CCCCNCc1ccc(COC(=O)Nc2cccc3ccccc23)cc1`, for which the IC50 against Prolyl hydroxylase EGLN2 is 54 µM; in test [6], 22 µM; in [7], 10 µM; on Egl nine homolog 1 [5], 83 µM; against Prolyl hydroxylase EGLN3, 31 µM; in [8], 43 µM. In addition, the IC50 amounted to 3.4 µM in [9] and 4.3 µM in test [10].

Consider `NC1CC1c1cccc(OCC[C@H](NC(=O)c2ccccc2)C(=O)NCc2ccccc2)c1` (some centres not stated), for which the Ki in test [1] was 740 µM; in test [2] it was 230 µM.

For the compound `S=C(SSC(=S)N1CCCC1)N1CCCC1` [BIS(PYRROLIDINYLTHIOCARBONYL)DISULFIDE], the IC50 in [10] was determined as 3.3 µM.

The values are drawn from ChEMBL document CHEMBL1938384, “Lysine demethylases inhibitors” (J Med Chem, 2011).
